Like-named read-outs stand apart in the source and are kept apart here.
Assays:
[1] = system: Beet Armyworm (BAW) (Spodoptera exigua); test: Bioassay on Beet Armyworm (BAW), 128-well diet tray assay; format: in vivo; conditions: Spodoptera exigua, 168 h, read-out: Rating BAW (% Control (or Mortality))
Method: (§1) Certain molecules disclosed in this document were tested against BAW and CEW using procedures described in the following examples. In the reporting of the results, the “BAW & CEW Rating Table” was used (See Table Section).
Bioassays on BAW (Spodoptera exigua)
(§2) Trays were covered with a clear self-adhesive cover and held at 25° C., 14:10 light-dark for five to seven days. Percent mortality was recorded for the larvae in each well; activity in the eight wells was then averaged. The results are indicated in the table entitled “Table ABC: Biological Results” (See Table Section).

[2] = system: Corn Earworm (CEW) (Helicoverpa zea); test: Bioassay on Corn Earworm (CEW), 128-well diet tray assay; format: in vivo; conditions: Helicoverpa zea, 168 h; for mortality at 50 µg/cm2: read-out: Rating CEW (% Control (or Mortality)); for mortality at 0.5 µg/cm2: 0.5 μg/cm2 on artificial diet, read-out: Rating CEW (% Control (or Mortality)), *Tested at 0.5 μg/cm2
Method: as §1
Bioassays on CEW (Helicoverpa zea)
as §2

[3] = 50 μg/cm2 on artificial diet, second instar larvae, five to seven days
[4] = second instar larvae, five to seven days

SMILES	mortality at 50 µg/cm2 [1, 3]	mortality at 50 µg/cm2 [2, 3]	mortality at 0.5 µg/cm2 [2, 4]	mortality at 50 µg/cm2 [1]	mortality at 50 µg/cm2 [2]
CCc1cccc(C)c1N/C(=N\C(=O)Nc1ccc(-c2ncn(-c3ccc(OC(F)(F)F)cc3)n2)cc1)SCOC(=O)C(C)C [Molecule A55]	50 to 100%	50 to 100%			
CCc1cccc(C)c1N/C(S)=N/C(=O)Nc1ccc(-c2ncn(-c3ccc(OC(F)(F)F)cc3)n2)cc1 [Molecule A97]	50 to 100%		50 to 100%		
CC(C)c1ccccc1N1C(=O)CS/C1=C(/C#N)C(=O)Nc1ccc(-c2ncn(-c3ccc(OC(F)(F)F)cc3)n2)cc1 [Molecule A31, (Z)-2-Cyano-2-(3-(2-isopropylphenyl)-4-oxothiazolidin-2-ylidene)-N-(4-(1-(4-(trifluoromethoxy)phenyl)-1H-1,2,4-triazol-3-yl)phenyl)acetamide]	50 to 100%	50 to 100%			
COc1ccc(N/C(=N\C(=O)Nc2ccc(-c3ncn(-c4ccc(OC(F)(F)F)cc4)n3)cc2)SCOC(=O)C(C)C)c(C)c1 [Molecule A56]	50 to 100%	50 to 100%			
Cc1ccccc1N/C(S)=C(\C#N)C(=O)Nc1ccc(-c2ncn(-c3ccc(OC(F)(F)F)cc3)n2)cc1 [Molecule A29, (Z)-2-Cyano-3-mercapto-3-(o-tolylamino)-N-(4-(1-(4-(trifluoromethoxy)phenyl)-1H-1,2,4-triazol-3-yl)phenyl)acrylamide]	0 to 50%	50 to 100%			
O=C(/N=C1\SCC(=O)N1c1ccccc1Cc1ccccc1)Nc1ccc(-c2ncn(-c3ccc(OC(F)(F)F)cc3)n2)cc1 [Molecule A105]	50 to 100%		50 to 100%		
Cc1c(F)cccc1N/C(S)=N/C(=O)Nc1ccc(-c2ncn(-c3ccc(OC(F)(F)F)cc3)n2)cc1 [Molecule A79]	50 to 100%		50 to 100%		
CC(C)c1c(F)cccc1N1C(=O)CS/C1=N\C(=O)Nc1ccc(-c2ncn(-c3ccc(OC(F)(F)F)cc3)n2)cc1 [Molecule A109]	50 to 100%		50 to 100%		
Cc1ccc(N/C(S)=N/C(=O)Nc2ccc(-c3ncn(-c4ccc(OC(F)(F)F)cc4)n3)cc2)c(Cl)c1 [Molecule A73]	50 to 100%		50 to 100%		
Cc1ccc(C(C)C)c(N2C(=O)CS/C2=N\C(=O)Nc2ccc(-c3ncn(-c4ccc(OC(F)(F)F)cc4)n3)cc2)c1 [Molecule A87]	50 to 100%		50 to 100%		
COc1ccc(N/C(S)=C(\C#N)C(=O)Nc2ccc(-c3ncn(-c4ccc(OC(F)(F)F)cc4)n3)cc2)c(C)c1 [Molecule A26, (Z)-2-Cyano-3-mercapto-3-((4-methoxy-2-methylphenyl)amino)-N-(4-(1-(4-(trifluoromethoxy)phenyl)-1H-1,2,4-triazol-3-yl)phenyl)acrylamide]	0%	0%			
CC(C)n1nccc1N/C(S)=N/C(=O)Nc1ccc(-c2ncn(-c3ccc(OC(F)(F)F)cc3)n2)cc1 [Molecule A119]	50 to 100%		0 to 50%		
Cc1cccc(Cl)c1N1C(=O)CS/C1=N\C(=O)Nc1ccc(-c2ncn(-c3ccc(OC(F)(F)F)cc3)n2)cc1 [Molecule A74]	50 to 100%		50 to 100%		
CCc1ccccc1NC(=O)NC(=O)Nc1ccc(-c2ncn(-c3ccc(OC(F)(F)F)cc3)n2)cc1 [Molecule A52]	50 to 100%	50 to 100%			
CC(C)c1ccccc1N/C(S)=C(\C#N)C(=O)Nc1ccc(-c2ncn(-c3ccc(OC(F)(F)F)cc3)n2)cc1 [Molecule A25, (Z)-2-cyano-3-((2-isopropylphenyl)amino)-3-mercapto-N-(4-(1-(4-(trifluoromethoxy)phenyl)-1H-1,2,4-triazol-3-yl)phenyl)acrylamide]	0%	0 to 50%			
Cc1cccc(N2C(=O)CS/C2=N\C(=O)Nc2ccc(-c3ncn(-c4ccc(OC(F)(F)F)cc4)n3)cc2)c1C(C)C [Molecule A108]	50 to 100%		50 to 100%		
Cc1cc(C)cc(N/C(S)=N/C(=O)Nc2ccc(-c3ncn(-c4ccc(OC(F)(F)F)cc4)n3)cc2)c1 [Molecule A100]	50 to 100%		50 to 100%		
CCC1CS/C(=N\C(=O)Nc2ccc(-c3ncn(-c4ccc(OC(F)(F)F)cc4)n3)cc2)N1c1c(C)cc(C)cc1C (centres unmarked) [Molecule A38]	50 to 100%	50 to 100%			
Cc1cc(C)c(N2C(=O)C(C)S/C2=N\C(=O)Nc2ccc(-c3ncn(-c4ccc(OC(F)(F)F)cc4)n3)cc2)c(C)c1 (centres unmarked) [Molecule A37]	50 to 100%	50 to 100%			
CC(C)c1cc(F)ccc1N/C(S)=N/C(=O)Nc1ccc(-c2ncn(-c3ccc(OC(F)(F)F)cc3)n2)cc1 [Molecule A116]	50 to 100%		50 to 100%		
Cc1cccc(C)c1-n1c(C)cs/c1=N\C(=O)Nc1ccc(-c2ncn(-c3ccc(OC(F)(F)F)cc3)n2)cc1 [Molecule A42]	0 to 50%	0%			

SMILES	mortality at 50 µg/cm2 [1, 3]	mortality at 50 µg/cm2 [2, 3]	mortality at 0.5 µg/cm2 [2, 4]	mortality at 50 µg/cm2 [1]	mortality at 50 µg/cm2 [2]
Cc1cccc(C)c1N/C(=N/C(=O)Nc1ccc(-c2ncn(-c3ccc(C(F)(F)F)cc3)n2)cc1)SCOC(=O)CNC(=O)OCc1ccccc1 [Molecule A8, (Z)-((N-(2,6-Dimethylphenyl)-N′-((4-(1-(4-(trifluoromethyl)phenyl)-1H-1,2,4-triazol-3-yl)phenyl)carbamoyl)carbamimidoyl)thio)methyl 2-(((benzyloxy)carbonyl)amino)acetate]				50 to 100%	50 to 100%
Cc1cccc(N2C(=O)CS/C2=N\C(=O)Nc2ccc(-c3ncn(-c4ccc(OC(F)(F)F)cc4)n3)cc2)c1C [Molecule A75]	50 to 100%		50 to 100%		
O=C(/N=C(\S)Nc1ccccc1C(F)(F)F)Nc1ccc(-c2ncn(-c3ccc(OC(F)(F)F)cc3)n2)cc1 [Molecule A127]	50 to 100%	0%			
O=C(/N=C(\S)Nc1ccccc1Cc1ccccc1)Nc1ccc(-c2ncn(-c3ccc(OC(F)(F)F)cc3)n2)cc1 [Molecule A101]	50 to 100%		50 to 100%		
CC(C)c1ccccc1N/C(S)=C/C(=O)Nc1ccc(-c2ncn(-c3ccc(OC(F)(F)F)cc3)n2)cc1 [Molecule A21, 3-((2-isopropylphenyl)amino)-3-thioxo-N-(4-(1-(4-(trifluoromethoxy)phenyl)-1H-1,2,4-triazol-3-yl)phenyl)propanamide]	50 to 100%	50 to 100%			
Cc1cccc(Cl)c1N/C(S)=N/C(=O)Nc1ccc(-c2ncn(-c3ccc(OC(F)(F)F)cc3)n2)cc1 [Molecule A70]	50 to 100%		50 to 100%		
CC(C)c1cccc(Cl)c1N/C(S)=N/C(=O)Nc1ccc(-c2ncn(-c3ccc(OC(F)(F)F)cc3)n2)cc1 [Molecule A81]	50 to 100%	50 to 100%			
Cc1cc(C)c(N2C(=O)CS/C2=N\C(=O)Nc2ccc(-c3ncn(-c4ccc(OC(F)(F)F)cc4)n3)cc2)c(C)c1 [Molecule A36]	50 to 100%	50 to 100%			
CC(C)c1ccccc1N/C(S)=N/C(=O)Nc1ccc(-c2nnc(-c3ccc(OC(F)(F)C(F)(F)F)cc3)o2)cc1 [Molecule A96]	50 to 100%	0%			
CC(C)c1ccc(F)cc1N/C(S)=N/C(=O)Nc1ccc(-c2ncn(-c3ccc(OC(F)(F)F)cc3)n2)cc1 [Molecule A82]	50 to 100%		50 to 100%		
CC(C)c1c(F)cccc1N/C(S)=N/C(=O)Nc1ccc(-c2ncn(-c3ccc(OC(F)(F)F)cc3)n2)cc1 [Molecule A107]	50 to 100%		50 to 100%		
CC(C)c1ccccc1N/C(S)=N/C(=O)Nc1ccc(-c2ccn(-c3ccc(OC(F)(F)F)cc3)n2)cc1 [Molecule A114]	50 to 100%		50 to 100%		
O=C(/N=C1\SCC(=O)N1c1ccccc1C1CC1)Nc1ccc(-c2ncn(-c3ccc(OC(F)(F)F)cc3)n2)cc1 [Molecule A66]	50 to 100%				
COc1ccc(Cl)cc1N/C(S)=N/C(=O)Nc1ccc(-c2ncn(-c3ccc(OC(F)(F)F)cc3)n2)cc1 [Molecule A99]	0%				
CC(C)c1ccccc1N/C(S)=N/C(=O)Nc1ccc(-c2ncn(-c3ccc(OC(F)(F)C(F)(F)F)cc3)n2)cc1 [Molecule A112]	50 to 100%				
CC(C)c1ccccc1N1C(=O)CS/C1=N\C(=O)Nc1ccc(-c2nnc(-c3ccc(OC(F)(F)C(F)(F)F)cc3)o2)cc1 [Molecule A102, (Z)-1-(3-(2-isopropylphenyl)-4-oxothiazolidin-2-ylidene)-3-(4-(5-(4-(perfluoroethoxy)phenyl)-1,3,4-oxadiazol-2-yl)phenyl)urea]			50 to 100%		
Cc1cccc(N/C(S)=N/C(=O)Nc2ccc(-c3ncn(-c4ccc(OC(F)(F)F)cc4)n3)cc2)c1C [Molecule A71]	50 to 100%				
O=C(/N=C(\S)Nc1ccc(Cl)cc1Cl)Nc1ccc(-c2ncn(-c3ccc(OC(F)(F)F)cc3)n2)cc1 [Molecule A78]	0%				
Cc1ccc(C(C)C)c(N/C(S)=N/C(=O)Nc2ccc(-c3ncn(-c4ccc(OC(F)(F)F)cc4)n3)cc2)c1 [Molecule A83]	50 to 100%				
CC(C)(C)c1ccccc1N1C(=O)CS/C1=N\C(=O)Nc1ccc(-c2ncn(-c3ccc(OC(F)(F)F)cc3)n2)cc1 [Molecule A95]			50 to 100%		

Source: patent publication US20150196033A1, “PESTICIDAL COMPOSITIONS AND PROCESSES RELATED THERETO” (priority 2012, published 2015)
